Measured values from patent EP4631962A1, “PEPTIDE FOR CARTILAGE REGENERATION, AND USES THEREOF” (Caregen Co., Ltd., priority 2022, dated 2024).
Where a SMILES comes first, the peptide text is derived from it. Where no end group is shown, it is not given here.

Experiments:
[1] = system: human-derived chondrocyte cells (C28/I2, human chondrocyte cell line); assay: CCK-8 assay, cytotoxicity in chondrocytes; assay type: cell-based; conditions: different concentrations, after 3 days, FIG. 1 and FIG. 2
Description: (§1) The cytotoxicity of Peptide-1 or Peptide-2 upon addition to human-derived chondrocyte cells (C28/I2, human chondrocyte cell line) and human adipose-derived mesenchymal stem cells (AD-MSC) was analyzed using a CCK-8 assay.
Specifically, human-derived chondrocytes were seeded in a 96-well plate at a density of 3 × 10^3 cells/well and cultured in DMEM medium (cat. 11995-065, Gibco) for 24 hours.

[2] = system: human adipose-derived mesenchymal stem cells (AD-MSC); assay: CCK-8 assay, cytotoxicity in AD-MSC; assay type: cell-based; conditions: different concentrations, after 7 days, FIG. 3
Description: as §1

Compound	toxicity (CCK-8 activity) [1]	toxicity (CCK-8 activity) [2]
KRRRKRK [Peptide-1, KRRRKRK]	did not exhibit toxicity	did not exhibit toxicity
N[C@@H](CCC(=O)O)C(=O)N[C@@H](CC(=O)O)C(=O)N[C@@H](CC(=O)O)C(=O)O [Peptide-2, EDD] (H-Glu-Asp-Asp-OH)	did not exhibit toxicity	
